Results from patent publication US20110263610A1, “COMPOUNDS AND COMPOSITIONS AS ITPKB INHIBITORS” (IRM LLC, priority 2008, published 2011).

target: T1, ITPKb (Mus musculus, UniProt B2RXC2); assay: Biochemical measurement of ITPKb activity (Kinase-Glo ATP depletion assay); inhibiting the phosphorylation of IP3 to IP4; design: species or system murine; conditions: Table 1; inhibiting the phosphorylation of IP3 to IP4; read-out: IC50
T1 construct: murine ITPKb residues 640-942; MGSDKIHHHHHH (His6 tag from MH4 plasmid) (N); made in house; host or cells: Escherichia coli HK100
T1 sequence (B2RXC2 640-942): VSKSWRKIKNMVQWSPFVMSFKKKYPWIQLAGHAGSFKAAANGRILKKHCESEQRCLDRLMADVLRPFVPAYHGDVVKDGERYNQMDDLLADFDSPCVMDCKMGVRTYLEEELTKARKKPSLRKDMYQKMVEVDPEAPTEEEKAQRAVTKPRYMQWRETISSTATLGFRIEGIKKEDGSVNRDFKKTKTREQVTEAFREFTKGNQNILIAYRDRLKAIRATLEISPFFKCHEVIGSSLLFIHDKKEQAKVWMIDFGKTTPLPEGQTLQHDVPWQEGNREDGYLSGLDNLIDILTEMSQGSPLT
Procedure: Compounds of the present invention are assayed to measure their capacity to inhibit ITPKb according to the following assays.
The DNA sequence encoding murine ITPKb residues 640-942 is amplified from a full-length construct in mammalian expression vector pKDNZ by PCR. The 3′-primer incorporates a stop codon and an overhanging PacI site. The product is digested with Pad before being ligated into the MH4 plasmid which has been prepared by digestion with PmlI and PacI. Cloning into the MH4 plasmid adds the sequence MGSDKIHHHHHH to the N-terminus of the translated region. Mutant enzymes are made by site-directed mutagenesis using the Stratagene Quikchange kit.
ITPKb is expressed in the HK100 strain of Escherichia coli. Typically, a 4 L batch of cells is grown in LB with […] ampicillin to 0.5 A600 at 30 degrees C., before induction with 0.02% L-arabinose for 6 hours. Cells are harvested by centrifugation, and pellets are resuspended in 50 mL of 50 mM Tris (pH 8), 100 mM NaCl, 1 mM TCEP, and 0.1 mg/mL lysozyme, with 1 Complete protease inhibitor tablet (Roche). Cells are disrupted by sonication, and debris is removed by centrifugation for 40 minutes at 35000 g.
Initial purification is performed using three nickel-Sepharose Hi-Trap HP 1 mL columns (Amersham) connected in series. After application of the pellet supernatants, the bound material is washed with 20 mM Tris (pH 8.0), 20 mM imidazole, 10% glycerol (v/v), and 1 mM TCEP before elution with an imidazole gradient up to 200 mM.
Fractions containing ITPKb are identified by SDS-PAGE, and the pure fractions are concentrated and buffer exchanged using centriprep 20 15 kDa columns into 20 mM Tris (pH 8), 200 mM KCl, 5 mM MgCl2, 0.5 mM DTT, 10% glycerol, 1 μM IP3, and 20 μM ATP to a final protein concentration of 7 mg/mL.
ITPKb activity is determined using the Kinase-Glo (Promega) ATP depletion assay. The assay reaction buffer consists of 50 mM Tris (pH 8.0), 100 mM NaCl, 1 mM DTT, 10% glycerol, 5 mM MgCl2, 1 μM ATP, and 10 μM IP3 (Alexis Biochemicals). 50 nl of inhibitor is then added to each 40 μL reaction followed by a 10 μL addition of purified ITPKb (final concentration of 60 nM). The reaction mixture is incubated for 60 minutes at room temperature and stopped by the addition of an equal volume of kinase-glo reagent (Promega). Luminescence is measured using a Molecular Devices Acquest instrument.

`C[C@@H]1CN(Cc2c[nH]nc2C(=O)N2CC(O)C2)CCN1c1ccc(C(F)(F)F)cn1` [Example 34] and `C[C@@H]1CN(Cc2c[nH]nc2C(=O)N2CCC(O)C2)CCN1c1ccc(C(F)(F)F)cn1` (stereo partly drawn) [Example 35] cannot be ordered by IC50: > 10000 nM for the first, > 10000 nM for the second.

First: C[C@@H]1CN(Cc2c[nH]nc2C(=O)N2CCC(O)CC2)CCN1c1ccc(C(F)(F)F)cn1 [Example 36]
Second: C[C@@H]1CN(Cc2c[nH]nc2C2CCN(C=O)CC2)CCN1c1ccc(C(F)(F)F)cn1 [Example 49]
The IC50 of the first is higher: > 10000 nM for the first, 241 nM for the second. The second is the more potent here.

Going from `COC(=O)c1ccc(-c2n[nH]cc2CN2CCN(c3ccc(C(F)(F)F)cn3)[C@H](C)C2)o1` [Example 37] to `C[C@@H]1CN(Cc2c[nH]nc2-c2ccc(C(=O)O)o2)CCN1c1ccc(C(F)(F)F)cn1` [Example 38], the IC50 falls from 984 nM to 435 nM (2.3-fold).

First: C[C@@H]1CN(Cc2c[nH]nc2-c2ccc(C(N)=O)o2)CCN1c1ccc(C(F)(F)F)cn1 [Example 39]
Second: C[C@@H]1CN(Cc2c[nH]nc2-c2cc(C(N)=O)co2)CCN1c1ccc(C(F)(F)F)cn1 [Example 53]
The IC50 of the first is 9.8-fold lower: 8 nM for the first, 78 nM for the second.

Compared with `C[C@@H]1CN(Cc2c[nH]nc2-c2ccnc3[nH]ccc23)CCN1c1ccc(C(F)(F)F)cn1` [Example 40], `C[C@@H]1CN(Cc2c[nH]nc2-c2c[nH]c3ncccc23)CCN1c1ccc(C(F)(F)F)cn1` [Example 44] is 2.6-fold lower in IC50: 478 nM for the first, 182 nM for the second. The second is the more potent here.

Compared with `C[C@@H]1CN(Cc2c[nH]nc2-c2cc(C(=O)N(C)C)c[nH]2)CCN1c1ccc(C(F)(F)F)cn1` [Example 41], `CC(O)CNC(=O)c1c[nH]c(-c2n[nH]cc2CN2CCN(c3ccc(C(F)(F)F)cn3)[C@H](C)C2)c1` (stereo partly drawn) [Example 43] is 6.1-fold lower in IC50: 85 nM for the first, 14 nM for the second. The second is the more potent here.

Going from `C[C@@H]1CN(Cc2c[nH]nc2-c2cc(C(=O)NCCO)c[nH]2)CCN1c1ccc(C(F)(F)F)cn1` [Example 42] to `C[C@@H]1CN(Cc2c[nH]nc2-c2cc(C(=O)N[C@@H](C)CO)c[nH]2)CCN1c1ccc(C(F)(F)F)cn1` [Example 45], the IC50 falls from 14 nM to 6 nM (2.3-fold).

Compared with `C[C@@H]1CN(Cc2c[nH]nc2/C=C2\NC(=S)NC2=O)CCN1c1ccc(C(F)(F)F)cn1` [Example 46], `C[C@@H]1CN(Cc2c[nH]nc2/C=C2\NC(=N)NC2=O)CCN1c1ccc(C(F)(F)F)cn1` [Example 50] is lower in IC50: > 10000 nM for the first, 99 nM for the second. The second is the more potent here.

`CC(=O)N1CC=C(c2n[nH]cc2CN2CCN(c3ccc(C(F)(F)F)cn3)[C@H](C)C2)CC1` [Example 47] and `C[C@@H]1CN(Cc2c[nH]nc2C2=CCN(C(=O)CCO)CC2)CCN1c1ccc(C(F)(F)F)cn1` [Example 54] are within 1.5-fold of each other in IC50: 66 nM for the first, 80 nM for the second.

Going from `C[C@@H]1CN(Cc2c[nH]nc2C2CCNCC2)CCN1c1ccc(C(F)(F)F)cn1` [Example 48] to `C[C@@H]1CN(Cc2c[nH]nc2-c2cc(C(=O)O)co2)CCN1c1ccc(C(F)(F)F)cn1` [Example 52], the IC50 rises from 431 nM to 1040 nM (2.4-fold).

In the case of `NC(=O)c1c[nH]c(-c2n[nH]cc2CN2CCN(c3ccc(C(F)(F)F)cn3)[C@H](C(F)(F)F)C2)c1` [Example 51], the IC50 is reported as 2 nM.
